Experimental data as given in US8765730B2 (Hoffmann-La Roche Inc, priority 2010, dated 2014).

Molecular target: T1, human GPBAR1 receptor (Homo sapiens, UniProt Q8TDU6)
T1 construct: expressed in transfected cells
T1 sequence (Q8TDU6 1-330): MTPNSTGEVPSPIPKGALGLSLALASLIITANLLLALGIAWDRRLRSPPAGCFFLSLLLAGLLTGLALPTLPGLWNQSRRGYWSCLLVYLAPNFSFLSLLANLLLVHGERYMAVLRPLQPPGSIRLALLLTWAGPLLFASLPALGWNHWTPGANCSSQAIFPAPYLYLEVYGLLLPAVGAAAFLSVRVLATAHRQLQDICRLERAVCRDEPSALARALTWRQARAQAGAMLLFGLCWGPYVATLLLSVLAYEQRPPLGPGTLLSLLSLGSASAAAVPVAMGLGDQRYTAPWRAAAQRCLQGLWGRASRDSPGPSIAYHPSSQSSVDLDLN
Experiment: functional cAMP assay in CHO-dhfr(minus) cells expressing human GPBAR1 receptors
Format: cell-based
Details: functional cAMP assay, 30 min at 30° C., read-out: human EC50
How it was run: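 Agonist cAMP read-out: stable GPBAR1 CHO-dhfr− clone, 30 min compound exposure at 30° C following 30 min IBMX (1 mM) preincubation in Krebs Ringer bicarbonate. Time-resolved energy-transfer detection gives EC50; parental CHO cells serve as counter-screen.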

Work on COC(CCl)CNc1ccc([C@@H](C/C(=N\O)c2ccnc(C)c2)c2ccccc2C)cc1 (stereo partly drawn) [Example 357, (R)-3-[4-(3-Chloro-2-methoxy-propylamino)-phenyl]-1-(2-methyl-pyridin-4-yl)-3-o-tolyl-propan-1-one oxime] yielded an EC50 of 91 nM.

Same assay, conditions: human EC50, functional cAMP assay, 30 min at 30° C.

Point of comparison: Cn1cc(/C(CC(c2ccc(S(C)(=O)=O)cc2)c2cc(F)cc(F)c2)=N/O)ccc1=O (stereo not shown) [Example 351, (E)-5-(3-(3,5-Difluorophenyl)-1-(hydroxyimino)-3-(4-(methylsulfonyl)phenyl)propyl)-1-methylpyridin-2(1H)-one], EC50 452 nM. Against it:
- Cc1cc(Cl)ccc1C(C/C(=N\O)c1ccc(=O)n(C)c1)c1ccc(Oc2ccc(F)c(C(=O)O)c2)cc1 (stereo not shown) [Example 348, 5-{4-[1-(4-Chloro-2-methyl-phenyl)-3-[(E)-hydroxyimino]-3-(1-methyl-6-oxo-1,6-dihydro-pyridin-3-yl)-propyl]-phenoxy}-2-fluoro-benzoic acid] — 6.4-fold lower, 71 nM
- Cc1cc(Cl)ccc1C(C/C(=N\O)c1ccc(=O)n(C)c1)c1ccc(OCCCC(=O)O)cc1 (stereo not shown) [Example 349, 4-{4-[1-(4-Chloro-2-methyl-phenyl)-3-[(E)-hydroxyimino]-3-(1-methyl-6-oxo-1,6-dihydro-pyridin-3-yl)-propyl]-phenoxy}-butyric acid] — 1.7-fold lower, 267 nM
- Cn1cc(/C(CC(c2ccc(S(C)(=O)=O)cc2)c2cc(Cl)ccc2Cl)=N/O)ccc1=O (stereo not shown) [Example 350, (E)-5-(3-(2,5-Dichlorophenyl)-1-(hydroxyimino)-3-(4-(methylsulfonyl)phenyl)propyl)-1-methylpyridin-2(1H)-one] — 3.5-fold lower, 129 nM
- Cn1cc(/C(CC(c2ccc(S(C)(=O)=O)cc2)c2cc(Cl)cc(Cl)c2)=N/O)ccc1=O (stereo not shown) [Example 352, (E)-5-(3-(3,5-Dichlorophenyl)-1-(hydroxyimino)-3-(4-(methylsulfonyl)phenyl)propyl)-1-methylpyridin-2(1H)-one] — 5.6-fold lower, 81 nM
- Cc1cc(Cl)ccc1C(C/C(=N\O)c1ccc(=O)n(C)c1)c1ccc(NS(C)(=O)=O)cc1 (stereo not shown) [Example 353, N-{4-[1-(4-Chloro-2-methyl-phenyl)-3-[(E)-hydroxyimino]-3-(1-methyl-6-oxo-1,6-dihydro-pyridin-3-yl)-propyl]phenyl}-methanesulfonamide] — 1.6-fold lower, 274 nM
- Cc1cc(Cl)ccc1C(C/C(=N\O)c1ccc(=O)n(C)c1)c1ccc(NS(=O)(=O)C2CC2)cc1 (stereo not shown) [Example 354, Cyclopropanesulfonic acid {4-[1-(4-chloro-2-methyl-phenyl)-3-[(E)-hydroxyimino]-3-(1-methyl-6-oxo-1,6-dihydro-pyridin-3-yl)-propyl]-phenyl}-amide] — within 1.5-fold, 489 nM
- Cc1cc(Cl)ccc1C(C/C(=N\O)c1ccc(=O)n(C)c1)c1ccc(N2CCCC2=O)cc1 (stereo not shown) [Example 355, 5-{3-(4-Chloro-2-methyl-phenyl)-1-[(E)-hydroxyimino]-3-[4-(2-oxo-pyrrolidin-1-yl)-phenyl]-propyl}-1-methyl-1H-pyridin-2-one] — 4.1-fold lower, 110 nM
- Cc1cc(/C(C[C@H](c2ccc(N[C@H]3C[C@H](C(=O)O)C3)cc2)c2ccccc2C)=N/O)ccn1 [Example 356, 3-{4-[(R)-3-[(E)-Hydroxyimino]-3-(2-methyl-pyridin-4-yl)-1-o-tolyl-propyl]-phenylamino}-cyclobutanecarboxylic acid] — 5-fold lower, 90 nM
- Cc1cc(/C(C[C@H](c2ccc(S(C)(=O)=O)cc2)c2ccccc2C)=N/O)ccn1 [Example 358, (R)-3-(4-Methanesulfonyl-phenyl)-1-(2-methyl-pyridin-4-yl)-3-o-tolyl-propan-1-one oxime] — 32-fold lower, 14 nM
- Cc1cc(/C(C[C@H](c2ccc(S(C)(=O)=O)cc2)c2ccc(Cl)cc2C)=N/O)ccn1 [Example 359, (R)-3-(4-Chloro-2-methyl-phenyl)-3-(4-methanesulfonyl-phenyl)-1-(2-methyl-pyridin-4-yl)-propan-1-one oxime] — 17-fold lower, 26 nM
- Cc1ccccc1C(C/C(=N\O)c1ccc(=O)n(C)c1)c1ccc(C(=O)O)cc1 (stereo not shown) [Example 360, 4-[3-[(E)-Hydroxyimino]-3-(1-methyl-6-oxo-1,6-dihydro-pyridin-3-yl)-1-o-tolyl-propyl]-benzoic acid] — 11-fold higher, 4760 nM
